Experimental data as given in patent US20190022091A1, “METHOD OF TREATMENT FOR MENTAL DISORDERS” (SUMITOMO DAINIPPON PHARMA CO., LTD., priority 2010, published 2019).
Where a name gives a salt, the structure may show the parent alone.

How the values were obtained:
common marmosets = assay: ORD test (object retrieval with detour test) in marmosets; type: in vivo, common marmoset; details: for variation of the correct % of the ORD test (difficult task): single oral administration, test 2 hours after administration vs before, FIG. 2-6
Protocol: ORD test (object retrieval with detour test) is already reported as a method for evaluating executive function (attention function/impulsiveness) in primates.
Male and female common marmosets having body weights of 250-450 g were used. Haloperidol, clozapine, olanzapine, risperidone, and lurasidone hydrochloride were separately suspended in 0.5% methylcellulose (MC), and then each suspension was orally administered in a dose of 5 mL/kg to the marmosets. On the other hand, L-745,870 which is a D4 antagonist, and Ro 10-5824 which is a D4 agonist were separately dissolved in saline, and then each solution was intramuscularly administered to the femoris area in a dose of 0.5 mL/kg.
According to the method described in the literature (Psychopharmacology (2006) 196: 643-648) which was partially modified, the ORD test was carried out as follows (see FIG. 1).
In each of the boxes, 0.3-0.5 g of Baumkuchen as a food reward is placed at the point of each triangle in FIG. 1. The marmoset can reach out from the cage (shown as dotted line region) to obtain the reward placed in the acrylic box. FIG. 1 is a view from the directly above. Amongst the situations between each direction of the box and each position of the reward, 5 patterns (line of sight, left outside, left inside, right outside, and right inside) are defined as “easy task”, and the other 2 patterns (left deep, and right deep) are defined as “difficult task”. It is recorded as “correct” when the test animal can obtain the reward in one trial, while it is recorded as “incorrect” when the animal can obtain the reward in the second trial or later.
The ORD test is carried out in the order described in the following table without any interval between each trial, which is referred to as “one series”. The marmoset is made to be trained with the one series once a day.
The marmosets were trained with the ORD test at least 10 times, and then the trained marmosets were used in the following main test.
The main ORD test was carried out as follows.
(1) The ORD test is carried out before administering each test drug (former value). Hereinafter, the ORD test is done in one series containing the 17 trials corresponding to the above-mentioned training.
(2) Two hours after administering each test drug, the same ORD test is carried out again (latter value). In case of the combined administration, the first drug (lurasidone hydrochloride) is administered; one hour later, the second drug (the D4 antagonist or D agonist) is administered; and then the ORD test is done one hour after the second drug is administered.
(3) The variation of correct % in the Difficult task is calculated according to the following formula in order to evaluate the effect of each drug. For example, in case that the “correct count” in the before-administration test (former value) is 3 and the “correct count” in the after-administration test (latter value) is 5, the “correct %” is calculated to rise in 25% (=(5-3)/8×100%) based on the fact that the trial count of the difficult task in each series is 8.
The variation of the correct %={the difference between the both correct counts in the difficult task (latter value−former value)}/8×100
(4) The amount of Baumkuchen is 0.5 g×17=8.5 g in one series. The marmoset can be tested at most 2 sets per day, i.e. it has been confirmed that the marmoset can take at most 17 g of Baumkuchen per day, but, all the test marmosets cannot be satisfied with 17 g of Baumkuchen.
(5) In case that a marmoset treated with the drug is used again, the marmoset is given in 2 week-drug-holidays, and before the test it is confirmed that the previous medication will not affect the test.
(6) 5 to 6 marmosets were used per one test group. When a marmoset (s) suffered from vomiting or cataleptic akinesia induced by the drug and then the ORD test with the marmoset (s) could not be done, the data of the marmoset(s) were excluded. […]

histamine H1 = histamine H1 (Homo sapiens, UniProt P35367); details: cited from earlier work
5-HT2A = 5-HT2A (Homo sapiens, UniProt P28223); details: cited from earlier work
5-HT7 = 5-HT7 (Homo sapiens, UniProt P34969); details: cited from earlier work
[1] = molecular target: T1, noradrenaline α2c receptors (Homo sapiens, UniProt P18825); details: cited from earlier work
T1 sequence (P18825 1-462): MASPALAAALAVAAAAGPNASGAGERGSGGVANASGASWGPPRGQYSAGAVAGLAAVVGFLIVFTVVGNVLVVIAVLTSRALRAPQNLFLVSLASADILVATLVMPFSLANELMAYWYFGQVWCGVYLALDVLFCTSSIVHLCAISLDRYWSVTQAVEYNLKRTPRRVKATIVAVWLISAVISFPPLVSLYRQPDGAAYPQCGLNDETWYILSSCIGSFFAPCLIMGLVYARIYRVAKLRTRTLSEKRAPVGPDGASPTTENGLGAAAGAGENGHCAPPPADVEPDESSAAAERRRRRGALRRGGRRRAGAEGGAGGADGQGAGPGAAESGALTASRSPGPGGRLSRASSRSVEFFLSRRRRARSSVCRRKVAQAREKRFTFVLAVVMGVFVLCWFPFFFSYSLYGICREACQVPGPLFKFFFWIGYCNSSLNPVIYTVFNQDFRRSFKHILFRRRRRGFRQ

serotonin 5-HT1A = molecular target: T2, serotonin 5-HT1A (Homo sapiens, UniProt P08908); details: cited from earlier work
T2 sequence (P08908 1-422): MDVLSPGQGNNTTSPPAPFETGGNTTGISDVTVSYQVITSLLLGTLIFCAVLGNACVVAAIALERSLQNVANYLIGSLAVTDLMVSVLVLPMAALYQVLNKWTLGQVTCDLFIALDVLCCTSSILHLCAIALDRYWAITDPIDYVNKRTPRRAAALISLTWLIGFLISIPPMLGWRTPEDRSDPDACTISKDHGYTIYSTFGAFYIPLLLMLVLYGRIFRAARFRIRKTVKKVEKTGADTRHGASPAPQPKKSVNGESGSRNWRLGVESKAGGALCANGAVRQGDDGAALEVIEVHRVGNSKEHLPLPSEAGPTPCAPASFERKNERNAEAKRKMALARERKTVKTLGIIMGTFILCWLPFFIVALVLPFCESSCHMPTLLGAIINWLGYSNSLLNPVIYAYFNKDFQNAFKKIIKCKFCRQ

muscarinic M1 receptors = molecular target: T3, muscarinic M1 receptors (Homo sapiens, UniProt P11229); details: cited from earlier work
T3 sequence (P11229 1-460): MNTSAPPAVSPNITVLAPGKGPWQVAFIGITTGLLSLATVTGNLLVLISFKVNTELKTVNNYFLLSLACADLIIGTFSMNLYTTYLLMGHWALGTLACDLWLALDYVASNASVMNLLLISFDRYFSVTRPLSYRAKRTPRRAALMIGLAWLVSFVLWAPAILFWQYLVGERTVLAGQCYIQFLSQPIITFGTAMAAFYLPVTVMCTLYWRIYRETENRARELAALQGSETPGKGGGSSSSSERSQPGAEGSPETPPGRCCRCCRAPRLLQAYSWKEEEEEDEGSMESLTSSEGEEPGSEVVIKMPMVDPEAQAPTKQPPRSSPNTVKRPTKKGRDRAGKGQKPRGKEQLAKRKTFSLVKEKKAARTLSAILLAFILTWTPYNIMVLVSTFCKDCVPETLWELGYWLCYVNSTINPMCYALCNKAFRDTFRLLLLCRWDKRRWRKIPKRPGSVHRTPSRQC

dopamine D2 = dopamine D2 (Homo sapiens, UniProt P14416); details: cited from earlier work
SHRSP rats = assay: Y-maze test with juvenile SHRSP rats; type: in vivo, rat; details: for Total Arm Entries mean ± SE / % of Alternation Behavior mean ± SE: SHRSP; for Total Arm Entries mean ± SE: 8 minute session; for % of Alternation Behavior mean ± SE: 30 minutes before evaluation
Text: According to the Y-maze test with juvenile stroke-prone spontaneously hypertensive rats (SHRSP), it is possible to evaluate the effect of lurasidone hydrochloride on attention function with spontaneous Alternation Behavior as an index of attention or concentration (Behav Brain Funct. 2005 Jul. 15; 1:9). Moreover, the effects of lurasidone hydrochloride on hyperactivity, which is one of core symptoms in ADHD, can be confirmed by the total number of the Arm Entries in a Y-maze test.
For the estimation of inattentive behavior, male juvenile SHRSP rats as an ADHD model and WKY rats as a reference (4 weeks old, n=8-10/group) are used. These animals are commercially available from Charles River Laboratories Japan, inc. or Hoshino Laboratory animals, inc. Lurasidone hydrochloride (e.g. 0.01, 0.03, 0.1, 0.3, 1, 3 and 10 mg/kg; produced by Dainippon Sumitomo Pharma Co., Ltd.) is dissolved in 0.5% methylcellulose and 0.2% Tween 80, and is administrated intraperitoneally in a volume of 1 ml/kg, 30 minutes before the evaluation.
The method of Y-maze test was already reported elsewhere (Behav Pharmacol. 2002 February; 13(1):1-13). The “Arm Entry” means the entry of all four paws into one arm. The “Alternation Behavior”, which is actual alternations, means the consecutive Arm Entries into three different arms. The test is carried out for 8 minutes in one session and the total number that a rat performs the Arm Entry is counted. The “Maximum Alternations” means the total number of the Arm Entries minus two. An index of attention is calculated as a percentage of the Alternation Behavior, as described below.
A percentage of Alternation Behavior=(the total number of the Alternation Behavior)/(the Maximum Alternations)×100

Sequence of 5-HT7 (P34969 whole entry, species assumed): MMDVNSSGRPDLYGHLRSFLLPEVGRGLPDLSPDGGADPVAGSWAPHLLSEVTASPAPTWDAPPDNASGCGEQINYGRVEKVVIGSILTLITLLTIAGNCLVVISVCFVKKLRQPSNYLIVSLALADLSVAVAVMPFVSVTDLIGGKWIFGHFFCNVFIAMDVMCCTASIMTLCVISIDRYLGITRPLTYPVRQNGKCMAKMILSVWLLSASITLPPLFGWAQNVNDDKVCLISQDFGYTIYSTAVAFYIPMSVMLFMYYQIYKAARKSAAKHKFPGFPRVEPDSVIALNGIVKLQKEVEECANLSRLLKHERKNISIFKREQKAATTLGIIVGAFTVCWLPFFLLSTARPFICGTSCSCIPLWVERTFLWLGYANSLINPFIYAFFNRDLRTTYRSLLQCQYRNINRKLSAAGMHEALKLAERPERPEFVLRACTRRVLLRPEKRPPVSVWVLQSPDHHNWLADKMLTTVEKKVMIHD
Sequence of histamine H1 (P35367 whole entry): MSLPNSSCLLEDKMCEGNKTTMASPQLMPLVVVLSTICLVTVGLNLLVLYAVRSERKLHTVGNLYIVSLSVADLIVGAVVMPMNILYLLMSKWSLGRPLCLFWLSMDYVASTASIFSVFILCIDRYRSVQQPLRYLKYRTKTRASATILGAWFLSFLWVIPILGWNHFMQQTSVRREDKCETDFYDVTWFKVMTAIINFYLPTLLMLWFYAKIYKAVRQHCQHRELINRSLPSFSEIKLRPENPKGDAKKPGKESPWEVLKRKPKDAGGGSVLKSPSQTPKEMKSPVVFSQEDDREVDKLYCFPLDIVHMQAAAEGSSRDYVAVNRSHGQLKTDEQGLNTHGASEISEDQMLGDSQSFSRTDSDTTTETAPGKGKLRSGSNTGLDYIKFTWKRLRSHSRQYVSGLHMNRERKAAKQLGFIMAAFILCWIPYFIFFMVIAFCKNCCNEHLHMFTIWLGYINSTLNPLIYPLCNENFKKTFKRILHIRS
Sequence of 5-HT2A (P28223 whole entry, species assumed): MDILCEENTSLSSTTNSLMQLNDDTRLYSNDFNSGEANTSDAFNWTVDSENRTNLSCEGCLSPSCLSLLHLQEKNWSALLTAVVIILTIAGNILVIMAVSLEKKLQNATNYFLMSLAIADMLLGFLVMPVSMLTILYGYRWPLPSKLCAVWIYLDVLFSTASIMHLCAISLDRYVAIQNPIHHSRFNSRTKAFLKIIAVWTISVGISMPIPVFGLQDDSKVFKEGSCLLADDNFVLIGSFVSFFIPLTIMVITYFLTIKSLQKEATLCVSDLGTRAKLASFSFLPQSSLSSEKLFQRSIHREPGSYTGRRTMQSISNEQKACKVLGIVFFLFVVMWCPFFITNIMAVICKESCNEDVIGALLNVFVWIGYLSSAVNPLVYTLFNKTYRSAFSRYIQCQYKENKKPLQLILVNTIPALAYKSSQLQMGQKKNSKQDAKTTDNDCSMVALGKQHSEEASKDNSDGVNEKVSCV
Sequence of dopamine D2 (P14416 whole entry): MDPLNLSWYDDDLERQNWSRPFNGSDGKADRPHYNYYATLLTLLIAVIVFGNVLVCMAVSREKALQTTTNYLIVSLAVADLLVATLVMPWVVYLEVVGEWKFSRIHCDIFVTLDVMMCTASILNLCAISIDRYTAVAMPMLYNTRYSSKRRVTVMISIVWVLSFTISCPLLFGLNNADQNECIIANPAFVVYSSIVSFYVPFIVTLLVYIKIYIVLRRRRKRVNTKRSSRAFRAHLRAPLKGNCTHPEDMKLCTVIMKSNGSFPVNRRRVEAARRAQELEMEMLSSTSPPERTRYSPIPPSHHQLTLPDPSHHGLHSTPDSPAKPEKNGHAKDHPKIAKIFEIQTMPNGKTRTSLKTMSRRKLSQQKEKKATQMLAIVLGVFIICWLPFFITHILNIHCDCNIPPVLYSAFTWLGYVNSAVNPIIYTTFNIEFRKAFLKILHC

O=C(CCCN1CCC(O)(c2ccc(Cl)cc2)CC1)c1ccc(F)cc1 [haloperidol]
variation of the correct % of the ORD test (difficult task) (common marmosets): decreased the correct % of the ORD test in a dose-dependent manner

Cc1ncc(CN2CC=C(c3ccccc3)CC2)c(N)n1 [Ro 10-5824, 2-Methyl-5-(4-phenyl-1,2,3,6-tetrahydropyridin-1-yl-methyl)pyrimidine-4-amine]
correct % of the ORD test (common marmosets; Ro 10-5824 alone, 0.3 mg/kg i.m.): had no effects on the correct % | ORD score (common marmosets; single administration i.m., dose series, FIG. 8): increased the ORD score in a dose dependent manner

Cc1nc2n(c(=O)c1CCN1CCC(c3noc4cc(F)ccc34)CC1)CCCC2 [risperidone]
variation of the correct % of the ORD test (difficult task) (common marmosets): decreased the correct % of the ORD test in a dose-dependent manner

O=C1[C@@H]2[C@H]3CC[C@H](C3)[C@@H]2C(=O)N1C[C@@H]1CCCC[C@H]1CN1CCN(c2nsc3ccccc23)CC1 [Lurasidone, (3aR, 4S, 7R, 7aS)-2-{1(1R,2R)-2-(4-(1,2-benzisothiazol-3-yl)piperazin-1-yl-methyl]cyclohexylmethyl}hexahydro-4,7-methano-2H-isoindole-1,3-dione]
affinity (histamine H1): minimal to no affinity | affinity (5-HT2A): high affinity | affinity (5-HT7): high affinity | affinity [1]: high affinity | affinity (serotonin 5-HT1A): high affinity | affinity (muscarinic M1 receptors): minimal to no affinity | affinity (dopamine D2): high affinity

O=C1[C@@H]2[C@H]3CC[C@H](C3)[C@@H]2C(=O)N1C[C@@H]1CCCC[C@H]1CN1CCN(c2nsc3ccccc23)CC1 [lurasidone hydrochloride]
Total Arm Entries mean ± SE (SHRSP rats; 0.1 mg/kg i.p.): 24 ± 1 | % of Alternation Behavior mean ± SE (SHRSP rats; 0.1 mg/kg i.p.): 70 ± 5% | Total Arm Entries mean ± SE (SHRSP rats; 0.3 mg/kg i.p., P < 0.05): 22 ± 2 | % of Alternation Behavior mean ± SE (SHRSP rats; 0.3 mg/kg i.p., P < 0.05): 75 ± 2 % | Total Arm Entries mean ± SE (SHRSP rats; 1.0 mg/kg i.p., P < 0.05): 21 ± 1 | % of Alternation Behavior mean ± SE (SHRSP rats; 1.0 mg/kg i.p.): 72 ± 2% | Alternation Behavior (in words) (SHRSP rats; SHRSP, 0.1, 0.3 or 1.0 mg/kg, significant at 0.3 mg/kg (p=0.0124)): the Alternation Behavior was improved | number of total Arm Entries (in words) (SHRSP rats; SHRSP, 0.1, 0.3 or 1.0 mg/kg, significant at 0.3 (p=0.0096) and 1 (p=0.0047) mg/kg): showed the decreased number of total Arm Entries | ORD score (common marmosets; lurasidone hydrochloride 3 mg/kg p.o. combined with Ro 10-5824 0.3 mg/kg i.m., FIG. 8): the ORD score was significantly increased | correct % of the ORD test (common marmosets; lurasidone hydrochloride alone, 3 mg/kg p.o.): had no effects on the correct % | variation of the correct % of the ORD test (difficult task) (common marmosets): increased the correct % of the ORD test in a dose-dependent manner

Clc1ccc(N2CCN(Cc3c[nH]c4ncccc34)CC2)cc1 [L-745,870]
correct % of the ORD test (common marmosets; L-745,870 3 mg/kg i.m. combined with lurasidone hydrochloride 10 mg/kg p.o., FIG. 7): decreased the correct % which was increased by the administration of lurasidone hydrochloride | ORD score (common marmosets; single intramuscular administration, 10 mg/kg, FIG. 7): had no effects on the ORD score
